For 1 molecule, IC50 results are on record in patent US11453701B2, “Tau aggregation peptide inhibitors” (ADRX, INC., priority 2017, dated 2022).

What is called IC50 is the concentration that inhibits the measured activity by half. High values mean lower potency, low ones higher potency.

Molecules are shown by their SMILES. “And” between values parts separate entries of the source, which are not always exact repeats. Equal values may be shown once. Square brackets hold non-standard residues; d marks the D form. Peptide text beside a SMILES is read from it.

This assay has as its target T1, Tau40 P301L protein (Homo sapiens, UniProt P10636, P618L).
T1 construct: His (N); made in house; host or cells: E. coli BL21
Description: Thioflavin T assay of Tau40 amyloid inhibition (Tau40 assay). As to conditions: Thioflavin T fluorescence, Tau40 P301L 2.5 μM, 10 μM heparin. The assay is classed as biochemical.

T1 sequence (P10636 1-441 isoform P10636-8 P301L): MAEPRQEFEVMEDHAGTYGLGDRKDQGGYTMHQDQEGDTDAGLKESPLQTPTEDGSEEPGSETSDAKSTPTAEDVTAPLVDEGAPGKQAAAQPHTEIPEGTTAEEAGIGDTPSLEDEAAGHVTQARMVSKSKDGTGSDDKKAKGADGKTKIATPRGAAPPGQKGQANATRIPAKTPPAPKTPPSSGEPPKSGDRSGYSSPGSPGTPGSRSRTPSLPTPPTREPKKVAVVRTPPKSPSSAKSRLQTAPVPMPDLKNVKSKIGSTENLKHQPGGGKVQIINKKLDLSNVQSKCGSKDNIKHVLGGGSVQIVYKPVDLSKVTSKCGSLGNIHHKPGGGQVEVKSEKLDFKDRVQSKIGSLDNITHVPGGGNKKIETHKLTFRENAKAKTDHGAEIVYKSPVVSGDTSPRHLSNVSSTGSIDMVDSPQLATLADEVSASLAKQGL

Turning to `CC[C@@H](C)[C@@H](NC(=O)[C@@H](Cc1c[nH]cn1)NC(=O)[C@@H](CC(C)C)NC(=O)[C@@H](CCCCN)NC(=O)[C@H](N)Cc1ccccc1)C(=O)N[C@H](CCCNC(=N)N)C(=O)N[C@H](Cc1c[nH]cn1)C(=O)N[C@H](Cc1c[nH]c2ccccc12)C(=O)O` [compound 128] (H-[dF][dK][dL][dH][dI][dR][dH][dW]-OH; N-terminus and C-terminus assumed), the IC50 is 1710 nM and 1760 nM.
